Results: the supplement of paper PMC11208160

Experiment: recombinant UMI read abundance after kanamycin selection (control-corrected) (log10(CPM+1)); higher = more efficient recombination; extreme values may be limits of the assay; sequences stand for … in AGTGCAGAGAAAATCGGCCAGTTTTCTCTGCCTGCAGTCCGCATGCCGTGGGACCCCTTGGGTTCTAACCTGTTGCCTAGATTTATGCAGCGGACTGCCTTTCTCCCAAAGTGATAAACCGG…AGGTTGGTTTCACT; site = the 11-nt donor
Procedure, shortened: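 Under IPTG (0.07 mM) plus kanamycin, or without selection, Escherichia coli carrying a UMI-tagged donor and donor-binding-loop pair library and a target plasmid for the IS621 bridge recombinase were plated in two replicates. Recombinant UMIs were PCR-amplified across the donor–target junction and sequenced. Counts were converted to CPM, averaged over replicates, scaled by control-derived factors and reported as log10(CPM+1).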
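Note: IS621 bridge recombinase in Escherichia coli cells against a fixed T5 target plasmid.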

Sequence	recombinant UMI read abundance (log10)
GAATGACCATGGACCGGTTTTCCCGGTAATCCGTATTTGCA (site GAATGTCCTTG)	0
TAGATTACATGGACCGGTTTTCCCGGTAATCCGTATTTGCA (site TAGAATACTTG)	0.304
TAGGAAACATGGACCGGTTTTCCCGGTAATCCGTATTTGCG (site TAGGAAGCTCG)	2.11
CCCATATCATGGACCGGTTTTCCCGGTAATCCGTATTTGTG (site CCCATATCTTA)	0.0103
AGCTTTTCATGGACCGGTTTTCCCGGTAATCCGTATTTGAC (site AGCATTTCTGT)	0
GAATCGCCATGGACCGGTTTTCCCGGTAATCCGTATTTGCA (site GAATAGCCTTG)	0.613
AATTATGCATGGACCGGTTTTCCCGGTAATCCGTATTTGGA (site AATTATGCTCC)	0.0288
GGTACAACATGGACCGGTTTTCCCGGTAATCCGTATTTGTA (site GGTCCAACTTA)	0.00335
AATGAGACATGGACCGGTTTTCCCGGTAATCCGTATTTGGT (site AGTGAGACTAC)	1.41
TAGAATACATGGACCGGTTTTCCCGGTAATCCGTATTTGCA (site TAGACTACTTG)	0.486
ATAGGTACATGGACCGGTTTTCCCGGTAATCCGTATTTGAC (site CTAGGTACTGT)	1.97
CCGTTAGCATGGACCGGTTTTCCCGGTAATCCGTATTTGCG (site CCGTTAGCTCG)	0.184
TTCAGCTCATGGACCGGTTTTCCCGGTAATCCGTATTTGTT (site TTCAGCTCTAA)	0.00312
GTATATCCATGGACCGGTTTTCCCGGTAATCCGTATTTGGT (site GTATATCCTAC)	1.08
CTAAGCCCATGGACCGGTTTTCCCGGTAATCCGTATTTGAA (site CTAAGCCCTTT)	1.25
GGCCACCCATGGACCGGTTTTCCCGGTAATCCGTATTTGTA (site GGCCACCCTTA)	0.081
CGATCATCATGGACCGGTTTTCCCGGTAATCCGTATTTGCT (site CGATCATCTAA)	0
GGTCACCCATGGACCGGTTTTCCCGGTAATCCGTATTTGTT (site GGCCACCCTAA)	0.0117
CACGGCTCATGGACCGGTTTTCCCGGTAATCCGTATTTGTT (site CACGGCCCTAA)	0.277
CCGTTAGCATGGACCGGTTTTCCCGGTAATCCGTATTTGCG (site CCGTTAGCTCT)	0.0063
CATCCATCATGGACCGGTTTTCCCGGTAATCCGTATTTGGG (site CATCCATCTCC)	0.0148
GCGAAGACATGGACCGGTTTTCCCGGTAATCCGTATTTGCT (site GCGAACACTAG)	0.298
TGGAAAACATGGACCGGTTTTCCCGGTAATCCGTATTTGCA (site TGGAAAACTTG)	2.24
ACAGCTACATGGACCGGTTTTCCCGGTAATCCGTATTTGTG (site ACAACTACTCA)	0.815
CTTTCGGCATGGACCGGTTTTCCCGGTAATCCGTATTTGTG (site CTTTCGGCTCA)	0.003

Sequence	recombinant UMI read abundance (log10)
ATTGCGACATGGACCGGTTTTCCCGGTAATCCGTATTTGGT (site ATTGGGACTAC)	0.456
TAGGTTGCATGGACCGGTTTTCCCGGTAATCCGTATTTGGT (site TAGGTTGCTAC)	1.27
GAAAACGCATGGACCGGTTTTCCCGGTAATCCGTATTTGGA (site GAAAACGCTTC)	1.02
GGTCCAACATGGACCGGTTTTCCCGGTAATCCGTATTTGTA (site GCTCCAACTTA)	0.00409
CCCTAGCCATGGACCGGTTTTCCCGGTAATCCGTATTTGGC (site CCCTAGCCTGC)	0
ACAAAATCATGGACCGGTTTTCCCGGTAATCCGTATTTGCA (site ACAGTATCTTG)	1.45
TTTAACCCATGGACCGGTTTTCCCGGTAATCCGTATTTGAA (site TTTAACCCTTT)	0.00893
CGGAATCCATGGACCGGTTTTCCCGGTAATCCGTATTTGTT (site CGGTATCCTAT)	0
CAGCTCACATGGACCGGTTTTCCCGGTAATCCGTATTTGAT (site GAGCTCACTAT)	0.00621
CACTCATCATGGACCGGTTTTCCCGGTAATCCGTATTTGCC (site CACTCATCTGG)	1.74
GATCGCTCATGGACCGGTTTTCCCGGTAATCCGTATTTGTT (site GATCGCTCTAA)	0.523
AGGGAGTCATGGACCGGTTTTCCCGGTAATCCGTATTTGCC (site CGGGAGTCTGG)	0.995
CGTTTGGCATGGACCGGTTTTCCCGGTAATCCGTATTTGCT (site CGTTTGACTAG)	0
CGTTCATCATGGACCGGTTTTCCCGGTAATCCGTATTTGAT (site CGATCATCTAG)	0
GCTACTGCATGGACCGGTTTTCCCGGTAATCCGTATTTGCC (site GCTACTACTGG)	1.21
GGCTATCCATGGACCGGTTTTCCCGGTAATCCGTATTTGAA (site GGCTATCCTTT)	0.133
CGGAATCCATGGACCGGTTTTCCCGGTAATCCGTATTTGTT (site CGGACCCCTAA)	0.00922
CGGAGTCCATGGACCGGTTTTCCCGGTAATCCGTATTTGTT (site CGGAATCCTAA)	0.767
ACAGTATCATGGACCGGTTTTCCCGGTAATCCGTATTTGTG (site ACAGTATCTTG)	1.03
GGCTCCTCATGGACCGGTTTTCCCGGTAATCCGTATTTGTA (site GGCTCCTCTTA)	1.84
GAATCGCCATGGACCGGTTTTCCCGGTAATCCGTATTTGCA (site GAATCGCCTTG)	0.687
CAATTCCCATGGACCGGTTTTCCCGGTAATCCGTATTTGCG (site CAATTCCCTGG)	0
GATCCGTCATGGACCGGTTTTCCCGGTAATCCGTATTTGTA (site GATCCGTCTTA)	1.26
TCCACTTCATGGACCGGTTTTCCCGGTAATCCGTATTTGCC (site TCCATTTCTGG)	0
CTTCTGTCATGGACCGGTTTTCCCGGTAATCCGTATTTGTA (site CTTCTCTCTTA)	0.00482

Sequence	recombinant UMI read abundance (log10)
GTATGCCCATGGACCGGTTTTCCCGGTAATCCGTATTTGTA (site GTATGCGCTTA)	0.0563
AATTATGCATGGACCGGTTTTCCCGGTAATCCGTATTTGGA (site AATAATGCTTC)	0.535
GAAGAGTCATGGACCGGTTTTCCCGGTAATCCGTATTTGTT (site GAAGACTCTAA)	0.941
TCCACCGCATGGACCGGTTTTCCCGGTAATCCGTATTTGCG (site TCCAACGCTCG)	0
CGGGAGTCATGGACCGGTTTTCCCGGTAATCCGTATTTGCC (site TGGGAGTCTGG)	0
ACAATATCATGGACCGGTTTTCCCGGTAATCCGTATTTGCT (site ACAGTATCTTG)	0.278
TGGATTTCATGGACCGGTTTTCCCGGTAATCCGTATTTGCA (site TGGATTTCTTG)	0.673
GGACCGGCATGGACCGGTTTTCCCGGTAATCCGTATTTGGG (site GGACCGGCTCC)	0.0163
CGTTACACATGGACCGGTTTTCCCGGTAATCCGTATTTGAG (site CGTTAGACTCT)	0.0129
CGTTTGGCATGGACCGGTTTTCCCGGTAATCCGTATTTGCT (site CGGTTGGCTAG)	0
CCAGGACCATGGACCGGTTTTCCCGGTAATCCGTATTTGGG (site CGAGGACCTCC)	0
CTCTCTACATGGACCGGTTTTCCCGGTAATCCGTATTTGAG (site CTCGCTACTCT)	0.00461
CGGAATCCATGGACCGGTTTTCCCGGTAATCCGTATTTGTT (site TGGCATCCTAA)	0.00352
GATGTAACATGGACCGGTTTTCCCGGTAATCCGTATTTGCT (site GATGTAACTAG)	1.83
TGGTCGGCATGGACCGGTTTTCCCGGTAATCCGTATTTGGC (site TGGCCGGCTGC)	0.682
CCACGAACATGGACCGGTTTTCCCGGTAATCCGTATTTGTC (site CCACGAACTGA)	0.774
TAGAATACATGGACCGGTTTTCCCGGTAATCCGTATTTGCA (site TAGAAAACTTG)	0.00693
AGCTTTTCATGGACCGGTTTTCCCGGTAATCCGTATTTGAC (site AGCGTTTCTGT)	0
CGTATGGCATGGACCGGTTTTCCCGGTAATCCGTATTTGCT (site CGTTTGGCTAG)	0
GTTAGAACATGGACCGGTTTTCCCGGTAATCCGTATTTGGC (site GCTAGAACTGC)	0
CATGGATCATGGACCGGTTTTCCCGGTAATCCGTATTTGGA (site CATGGATCTTC)	2.32
CTTCTCTCATGGACCGGTTTTCCCGGTAATCCGTATTTGTA (site CTTCGCTCTTA)	0.00811
TAGAATACATGGACCGGTTTTCCCGGTAATCCGTATTTGCA (site CAGAATACTTG)	0.572
ATAAGGTCATGGACCGGTTTTCCCGGTAATCCGTATTTGAC (site ATAAGGACTGT)	1.91
CGGGATCCATGGACCGGTTTTCCCGGTAATCCGTATTTGTT (site CGGTATCCTAA)	0.243
